Like-named read-outs stand apart in the source and are kept apart here.
How the values were obtained:
[1] = remark *see Ref. (Licha et al. 1996), cited from earlier work
tumors = details: cited from earlier work
[2] = Determination of fluorescence quantum yield of tricarbocyanine dyes; assay type: physicochemical; details: 2 μM
Description: Compounds 6-4, 5-36, 5-29, 5-41, NIR96009, NIR96005 and ICG (see Table 1) were tested for their fluorescence quantum yields at a concentration of 2 μM in either water or plasma. It is apparent from Table 2 that a substitution in the middle of the tricarbocyanine dye improves fluorescence quantum yield in both media.

CC1(C)C(/C=C/C=C/C=C/C=C2/N(CCCCS(=O)(=O)O)c3ccc(C(=O)O)cc3C2(C)C)=[N+](CCCCS(=O)(=O)[O-])c2ccc(C(=O)O)cc21 [NIR96005]
Fluorescence max. (nm) In plasma [1]: 795 nm
Fluorescence quantum yield (%) In plasma [1]: 7.2%
Fluorescence quantum yield (%) In water [1]: 5.6%

indocyanine green [ICG]
Size of ductal breast carcinomas that could be detected (tumors; DOT, 0.25 mg/kg body weight): ≥ 1 cm

CC1(C)C(/C=C/C2=C(c3ccccc3)C(=C/C=C3/N(CCCCS(=O)(=O)O)c4ccc(S(=O)(=O)[O-])cc4C3(C)C)/CCC2)=[N+](CCCCS(=O)(=O)O)c2ccc(S(=O)(=O)O)cc21 [Compound 5-41]
Fluorescence max. (nm) In plasma [2]: 799 nm
Fluorescence quantum yield (%) In plasma [2]: 19%
Fluorescence quantum yield (%) In water [2]: 10%

CC1(C)C(/C=C/C=C/C=C/C=C2/N(CCCCS(=O)(=O)O)c3ccc(C(=O)NC(CC(=O)O)C(=O)O)cc3C2(C)C)=[N+](CCCCS(=O)(=O)[O-])c2ccc(C(=O)NC(CC(=O)O)C(=O)O)cc21 (stereo not drawn) [NIR96009]
Fluorescence max. (nm) In plasma [1]: 786 nm
Fluorescence quantum yield (%) In plasma [1]: 7.8%
Fluorescence quantum yield (%) In water [1]: 5.8%

CC(/C=C/C=C1/N(CCS(=O)(=O)O)c2ccc(S(=O)(=O)[O-])cc2C1(C)C)=C\C=C\C1=[N+](CCS(=O)(=O)O)c2ccc(S(=O)(=O)O)cc2C1(C)C [Compound 5-36]
Fluorescence quantum yield (%) In water [2]: 12%

CC1(C)C(/C=C/C=C/C=C/C=C2/N(CCCCS(=O)(=O)O)c3ccc4ccccc4c3C2(C)C)=[N+](CCCCS(=O)(=O)[O-])c2ccc3ccccc3c21 [ICG, indocyanine green]
Fluorescence max. (nm) In plasma [1]: 829 nm
Fluorescence quantum yield (%) In plasma [1]: 3%
Fluorescence quantum yield (%) In water [1]: 1%
Detection limit, tumor size (tumors; prior-art dye): 1 cm

CC(/C=C/C=C1/N(CCS(=O)(=O)O)c2ccc(S(=O)(=O)[O-])cc2C1(C)C)=C\C=C\C1=[N+](CCS(=O)(=O)O)c2ccc(S(=O)(=O)O)cc2C1(C)C [SF64]
Fluorescence max. (nm) In plasma [2]: 787 nm
Fluorescence quantum yield (%) In plasma [2]: 17%
Fluorescence quantum yield (%) In water [2]: 11%

CC1(C)C(/C=C/C=C(/C=C/C=C2/N(CCCCS(=O)(=O)O)c3ccc(S(=O)(=O)[O-])cc3C2(C)C)CCS(=O)(=O)O)=[N+](CCCCS(=O)(=O)O)c2ccc(S(=O)(=O)O)cc21 [Compound 5-29]
Fluorescence max. (nm) In plasma [2]: 813 nm
Fluorescence quantum yield (%) In plasma [2]: 9.8%
Fluorescence quantum yield (%) In water [2]: 8.2%

Source: US20100166659A1, “USE OF CYANINE DYES FOR THE DIAGNOSIS OF PROLIFERATIVE DISEASES” (priority 2005, published 2010)
